Test results published in PubChem BioAssay (NCI).
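Each compound was tested at five concentrations against cells in 96-well plates for 48 hours. GI50 is the concentration that inhibits growth by half. TGI: total growth inhibition.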

Tests used:
Experiment in all cases: NCI anticancer screen, dose series, 48 h
M19-MEL melanoma = system: M19-MEL melanoma
CCRF-CEM leukemia = system: CCRF-CEM leukemia
NCI-H522 lung = system: NCI-H522 lung
NCI-H226 lung = system: NCI-H226 lung
OVCAR-8 ovarian = system: OVCAR-8 ovarian
MALME-3M melanoma = system: MALME-3M melanoma
HCT-15 colon = system: HCT-15 colon
NCI-H23 lung = system: NCI-H23 lung
DLD-1 colon = system: DLD-1 colon
HS 578T breast = system: HS 578T breast

Structure (SMILES) | TGI (M19-MEL melanoma) [µM] | TGI (CCRF-CEM leukemia) [µM] | TGI (NCI-H522 lung) [µM] | TGI (NCI-H226 lung) [µM] | TGI (OVCAR-8 ovarian) [µM] | TGI (MALME-3M melanoma) [µM] | TGI (HCT-15 colon) [µM] | TGI (NCI-H23 lung) [µM] | TGI (DLD-1 colon) [µM] | GI50 (M19-MEL melanoma) [µM] | GI50 (DLD-1 colon) [µM] | GI50 (CCRF-CEM leukemia) [µM] | GI50 (NCI-H522 lung) [µM] | GI50 (NCI-H226 lung) [µM] | GI50 (OVCAR-8 ovarian) [µM] | GI50 (HCT-15 colon) [µM] | GI50 (NCI-H23 lung) [µM] | GI50 (HS 578T breast) [µM] | TGI (HS 578T breast) [µM] | GI50 (MALME-3M melanoma) [µM]
CCOc1ccc(/C=C2/C(=O)N=C(N)N=C2N)cc1OCC | > 100 | > 100 | > 100 | > 100 | > 100 | > 100 | > 100 | > 100 | – | – | – | – | – | – | – | – | – | – | – | –
O=C(O)C1=C(C(=O)O)Oc2ccccc2O1 | > 100 | > 100 | > 100 | > 100 | > 100 | > 100 | > 100 | > 100 | > 100 | – | – | – | – | – | – | – | – | – | – | –
CC1(C)CC(O)CC(C)(C)N1.CC1(C)CC(O)CC(C)(C)N1.CC1(C)CC(O)CC(C)(C)N1.CC1(C)CC(O)CC(C)(C)N1.Cl.[Ti] | > 100 | > 100 | > 100 | > 100 | > 100 | – | > 100 | > 100 | > 100 | > 100 | > 100 | > 100 | > 100 | > 100 | > 100 | > 100 | > 100 | – | – | –
O=S(=O)(Cc1ccccc1)SCc1ccccc1 | 53.9 | > 27.5 | 25.2 | 54.4 | 28.8 | 73.6 | 40.2 | 52.7 | 21.9 | – | – | – | – | – | – | – | – | – | – | –
Nc1c(-c2nc3ccccc3s2)[n+]([O-])c2ccccc2[n+]1[O-] | 84.2 | > 100 | 45.8 | > 100 | > 100 | 91.7 | – | 51.4 | > 100 | – | – | – | – | – | – | – | – | – | – | –
Nc1nc(-c2ccccc2)cc(-c2cc(Cl)ccc2O)n1 | – | > 100 | 99.7 | > 100 | > 100 | > 100 | > 100 | > 100 | > 100 | – | – | – | – | – | – | – | – | – | – | –
NNC(=O)N/N=C1\CNC(=O)C(=O)C1c1nc2ccccc2s1 (stereo unspecified) | > 100 | > 100 | > 100 | > 100 | > 100 | > 100 | > 100 | > 100 | > 100 | – | – | – | – | – | – | – | – | – | – | –
CC(=O)c1c(O)c2c([nH]c1=O)CCCC2 | 44.3 | > 100 | – | – | > 100 | > 100 | > 100 | > 100 | > 100 | – | – | – | – | – | – | – | – | – | – | –
CC(C)=CC(=O)CC(=O)C(=O)NCCNC(=O)C(=O)CC(=O)C=C(C)C | > 50 | – | – | > 50 | > 50 | > 50 | > 50 | > 50 | > 50 | – | – | – | – | – | – | – | – | – | – | –
CCOC(=O)COc1cccc2occc(=O)c12 | > 100 | > 100 | > 100 | – | > 100 | > 100 | > 100 | > 100 | > 100 | – | – | – | – | – | – | – | – | – | – | –
COc1ccc2c3c(c(C(=O)O)oc13)C(CCC(=O)O)CC2 (stereo unspecified) | – | – | – | – | > 100 | – | > 100 | > 100 | > 100 | – | – | – | – | – | – | – | – | – | – | –
Nc1n[nH]c2ccc([C@@H]3Nc4c(F)cc5[nH]ncc5c4[C@H]4C5CCC(C5)[C@@H]34)cc12 (stereo partly specified) | – | > 52.1 | 2.17 | > 19.9 | > 100 | > 57.9 | > 41.5 | 21.8 | – | – | – | 0.332 | 0.102 | 0.629 | 0.468 | 0.222 | 0.46 | 0.178 | 8.78 | 1.38
Cn1c(CC(O)c2nc3ccccc3n2C)nc2ccccc21 (stereo unspecified) | – | 17.3 | > 8.21 | > 72.3 | > 47.8 | > 35.5 | > 49.5 | > 48.6 | – | – | – | – | – | – | – | – | – | – | > 24.2 | –
Cc1cn2c(/C=C3/C(=O)Nc4ccc(C(=O)O)cc43)c(C)nc2s1 | – | > 100 | > 100 | > 100 | > 100 | > 100 | > 100 | > 100 | – | – | – | > 100 | > 100 | > 100 | > 100 | > 100 | > 100 | > 100 | > 100 | > 100
CCc1ccc(C2=NN(c3ccc(S(C)(=O)=O)cc3)C(=O)CC2)cc1 | – | > 21.6 | 8.37 | > 100 | > 81.8 | > 82.2 | > 100 | > 24.3 | – | – | – | 1.23 | 0.339 | 14.6 | 2.87 | 1.38 | 1.85 | 0.977 | 7.77 | 3.58
Cc1ccc(O)cc1Nc1ccnc2cc(-c3ccccn3)ccc12 | – | 15 | 4.6 | 11.9 | 9.28 | 8.32 | 6.79 | 10.9 | – | – | – | 4.86 | 0.931 | 3.88 | 3.61 | 2.44 | 3.59 | 2.45 | 9.03 | 3.59
CN(c1ccc(NC(=O)NCCN2CCOCC2)cc1)c1ccnc(Nc2ccc(CS(C)(=O)=O)cc2)n1 | – | > 25 | > 25 | > 25 | > 25 | > 25 | > 25 | > 25 | – | – | – | > 25 | > 25 | 9.18 | > 25 | > 25 | > 25 | > 25 | > 25 | > 25
C=C(C)[C@@H]1CC[C@]2(C(=O)n3ccnc3)CC[C@]3(C)[C@H](CC[C@@H]4[C@@]5(C)CCCNC(C)(C)[C@@H]5CC[C@]43C)[C@@H]12 | – | 4.48 | 3.71 | 4.8 | 3.88 | 2.86 | 2.64 | 3.89 | – | – | – | 1.88 | 1.91 | 2.23 | 2.07 | 1.26 | 1.78 | 2.08 | 5.08 | 1.31
CC(C)(C)c1cc(C(OCCl)(C(F)(F)F)C(F)(F)F)c2c(c1)C(C(F)(F)F)(C(F)(F)F)OC21c2ccccc2C(=O)c2ccccc21 | > 100 | – | > 100 | > 100 | > 100 | > 100 | > 100 | > 100 | > 100 | – | – | – | – | – | – | – | – | – | – | –
O=S(=O)(NCCCNc1nccc(-c2c(-c3cccc(F)c3)nc3occn23)n1)c1cccc2ccccc12 | – | > 100 | > 100 | > 100 | > 100 | > 100 | > 100 | > 100 | – | – | – | 5.48 | 9.17 | 5.12 | 7.02 | 3.31 | 14.8 | 8.36 | > 100 | 5.24
